Results: PubChem BioAssay (NCI)
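How tested: cells in 96-well plates exposed to compound for 48 hours at five concentrations. At the TGI there is no net growth.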

Columns and labels:
Assay in all cases: NCI anticancer screen, dose series, 48 h
RPMI-8226 leukemia = system: RPMI-8226 leukemia
SNB-78 CNS = system: SNB-78 CNS
CAKI-1 renal = system: CAKI-1 renal
A549 NSCLC = system: A549 NSCLC
TK-10 renal = system: TK-10 renal
U251 CNS = system: U251 CNS
SF-268 CNS = system: SF-268 CNS
LOX IMVI melanoma = system: LOX IMVI melanoma
NCI-H23 lung = system: NCI-H23 lung
HOP-62 NSCLC = system: HOP-62 NSCLC
HOP-92 NSCLC = system: HOP-92 NSCLC
SW-620 colon = system: SW-620 colon
T-47D breast = system: T-47D breast
DLD-1 colon = system: DLD-1 colon
SF-295 CNS = system: SF-295 CNS
UACC-62 melanoma = system: UACC-62 melanoma
MALME-3M melanoma = system: MALME-3M melanoma
PC-3 prostate = system: PC-3 prostate
RXF 393 renal = system: RXF 393 renal
EKVX NSCLC = system: EKVX NSCLC
OVCAR-5 ovarian = system: OVCAR-5 ovarian
UO-31 renal = system: UO-31 renal
MCF7 breast = system: MCF7 breast
SF-539 CNS = system: SF-539 CNS
ACHN renal = system: ACHN renal
HL-60(TB) leukemia = system: HL-60(TB) leukemia
NCI-H522 lung = system: NCI-H522 lung
OVCAR-8 ovarian = system: OVCAR-8 ovarian
HCT-15 colon = system: HCT-15 colon
DMS 273 small cell lung = system: DMS 273 small cell lung
COLO 205 colon = system: COLO 205 colon
A498 renal = system: A498 renal
KM12 colon = system: KM12 colon
DMS 114 small cell lung = system: DMS 114 small cell lung
BT-549 breast = system: BT-549 breast
UACC-257 melanoma = system: UACC-257 melanoma
RXF-631 renal = system: RXF-631 renal
HCC-2998 colon = system: HCC-2998 colon
786-0 renal = system: 786-0 renal
M19-MEL melanoma = system: M19-MEL melanoma
SK-MEL-28 melanoma = system: SK-MEL-28 melanoma
SK-MEL-2 melanoma = system: SK-MEL-2 melanoma
M14 melanoma = system: M14 melanoma
HOP-18 NSCLC = system: HOP-18 NSCLC
SK-MEL-5 melanoma = system: SK-MEL-5 melanoma
OVCAR-4 ovarian = system: OVCAR-4 ovarian
KM20L2 colon = system: KM20L2 colon
MDA-MB-435 = system: MDA-MB-435
NCI-H226 lung = system: NCI-H226 lung
NCI/ADR-RES ovarian = system: NCI/ADR-RES ovarian
CCRF-CEM leukemia = system: CCRF-CEM leukemia
IGROV1 ovarian = system: IGROV1 ovarian
HT29 colon = system: HT29 colon
DU-145 prostate = system: DU-145 prostate
LXFL 529 NSCLC = system: LXFL 529 NSCLC
MDA-N = system: MDA-N
SNB-19 CNS = system: SNB-19 CNS
K-562 leukemia = system: K-562 leukemia
OVCAR-3 ovarian = system: OVCAR-3 ovarian
HS 578T breast = system: HS 578T breast
HCT-116 colon = system: HCT-116 colon
MDA-MB-231 breast = system: MDA-MB-231 breast
SR leukemia = system: SR leukemia
SN12C renal = system: SN12C renal
MOLT-4 leukemia = system: MOLT-4 leukemia
SNB-75 CNS = system: SNB-75 CNS
NCI-H460 lung = system: NCI-H460 lung
SK-OV-3 ovarian = system: SK-OV-3 ovarian
XF 498 CNS = system: XF 498 CNS

## CCNC(=O)/C(=C/c1ccc(OC)cc1)c1cc(OC)c(OC)c(OC)c1
RPMI-8226 leukemia
  TGI: > 100 µM
SNB-78 CNS
  TGI: > 100 µM
CAKI-1 renal
  TGI: > 100 µM
A549 NSCLC
  TGI: > 100 µM
TK-10 renal
  TGI: > 69.7 µM
U251 CNS
  TGI: 70 µM
SF-268 CNS
  TGI: > 100 µM
LOX IMVI melanoma
  TGI: > 100 µM
NCI-H23 lung
  TGI: > 85.3 µM
HOP-62 NSCLC
  TGI: > 100 µM
HOP-92 NSCLC
  TGI: > 96.6 µM
SW-620 colon
  TGI: > 100 µM
T-47D breast
  TGI: > 100 µM
DLD-1 colon
  TGI: > 100 µM
SF-295 CNS
  TGI: 19.6 µM
UACC-62 melanoma
  TGI: > 100 µM
MALME-3M melanoma
  TGI: > 100 µM
PC-3 prostate
  TGI: > 100 µM
RXF 393 renal
  TGI: 11.2 µM
EKVX NSCLC
  TGI: > 100 µM
OVCAR-5 ovarian
  TGI: > 100 µM
UO-31 renal
  TGI: > 100 µM
MCF7 breast
  TGI: > 100 µM
SF-539 CNS
  TGI: 45.9 µM
ACHN renal
  TGI: > 100 µM
HL-60(TB) leukemia
  TGI: 21.9 µM
NCI-H522 lung
  TGI: 20.8 µM
OVCAR-8 ovarian
  TGI: > 100 µM
HCT-15 colon
  TGI: > 100 µM
DMS 273 small cell lung
  TGI: > 100 µM
COLO 205 colon
  TGI: 24.8 µM
A498 renal
  TGI: > 63.8 µM
KM12 colon
  TGI: > 100 µM
DMS 114 small cell lung
  TGI: > 57 µM
BT-549 breast
  TGI: > 100 µM
UACC-257 melanoma
  TGI: > 100 µM
RXF-631 renal
  TGI: > 100 µM
HCC-2998 colon
  TGI: > 39.3 µM
786-0 renal
  TGI: > 100 µM
M19-MEL melanoma
  TGI: > 100 µM
SK-MEL-28 melanoma
  TGI: > 100 µM
SK-MEL-2 melanoma
  TGI: > 100 µM
M14 melanoma
  TGI: > 100 µM
HOP-18 NSCLC
  TGI: > 100 µM
SK-MEL-5 melanoma
  TGI: > 53.9 µM
OVCAR-4 ovarian
  TGI: > 100 µM
KM20L2 colon
  TGI: 13.5 µM
MDA-MB-435
  TGI: > 20.5 µM
NCI-H226 lung
  TGI: 88.7 µM
NCI/ADR-RES ovarian
  TGI: > 28 µM
CCRF-CEM leukemia
  TGI: > 100 µM
IGROV1 ovarian
  TGI: > 100 µM
HT29 colon
  TGI: 65.4 µM
DU-145 prostate
  TGI: 80.2 µM
LXFL 529 NSCLC
  TGI: > 100 µM
MDA-N
  TGI: 4.26 µM
SNB-19 CNS
  TGI: > 100 µM
K-562 leukemia
  TGI: > 100 µM
OVCAR-3 ovarian
  TGI: 15 µM
HS 578T breast
  TGI: > 42.2 µM
HCT-116 colon
  TGI: > 100 µM
MDA-MB-231 breast
  TGI: > 86.1 µM
SR leukemia
  TGI: > 100 µM
SN12C renal
  TGI: > 100 µM
MOLT-4 leukemia
  TGI: > 100 µM
SNB-75 CNS
  TGI: > 73.4 µM
NCI-H460 lung
  TGI: 57 µM
SK-OV-3 ovarian
  TGI: > 100 µM
XF 498 CNS
  TGI: 85.3 µM
